Measurements published in US20240352066A1, “ANTIMICROBIAL COMPOUNDS AND THE METHOD OF USE” (priority 2021, published 2024).
In brackets after ≈: the same amount, converted by molar mass. Like-named read-outs stand apart in the source and are kept apart here. Where a SMILES comes first, the peptide text is derived from it. [ ]: non-standard residue; d: D form. N(tridecyl)Gly = CCCCCCCCCCCCCNCC(=O)O; Gly(N-2-aminoethyl) = NCCNCC(=O)O; Gly(N-cHex) = O=C(O)CNC1CCCCC1; Nleu = CC(C)CNCC(=O)O; Nlys = NCCCCNCC(=O)O

Tests used:
[1] = test system: C. neoformans; type: cell-based, Cryptococcus neoformans; details: 72 h
[2] = Mammalian cytotoxicity, MTT, HepG2; type: cell-based, human; details: human, HepG2 hepatocellular carcinoma cells
Summary of the method: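 HepG2 cells (1×10^5 cells/mL, phenol-red-free DMEM, 10% FBS) were exposed to 2-fold dilutions of compound at 1.56–200 μg/mL final, in triplicate, for 72 h at 37 °C, 5% CO2. MTT was added for 3 h and, after DMSO solubilization, absorbance was read at 570 nm. TD50 is the concentration giving a 50% growth reduction versus the water vehicle, reported as the mean of biological replicates ± SD.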

| C. neoformans MIC [1] [µg/mL] | SMILES | MIC C. neoformans [1] [µg/mL] | CC50 at 72 h ([2]; Example 1, 72 hours, MTT, read-out: TD50 HepG2) [µg/mL] | CC50 at 72 h [2] [µg/mL] |
| --- | --- | --- | --- | --- |
| – | CCCCCCCCCCCCCNCC(=O)N(CC(=O)N(CCCCN)CC(=O)N(CCN)CC(=O)N(CC(N)=O)C1CCCCC1)C1CCCCC1 [RMG8-8, Ntri-Ncha-Nlys-Nae-Ncha] (H-[N(tridecyl)Gly][Gly(N-cHex)][Nlys][Gly(N-2-aminoethyl)][Gly(N-cHex)]-NH2) | 1.6 (≈ 2.1 µM) | 189 ± 43 (≈ 248 µM) | – |
| 3.13 | CCCCCCCCCCCCCNCC(=O)N(CC(=O)N(CCCCN)CC(=O)N(CCN)CC(=O)N(CC(N)=O)CC(C)C)CC(C)C [Compound 9] (H-[N(tridecyl)Gly][Nleu][Nlys][Gly(N-2-aminoethyl)][Nleu]-NH2) | – | – | 167 ± 75 (≈ 235 µM) |
